Experiment [1] concerns the target T1, human B1R receptor (hB1R) (Homo sapiens, UniProt P46663).
T1 construct: host or cells: CHO K1 cells
T1 sequence (P46663 1-353): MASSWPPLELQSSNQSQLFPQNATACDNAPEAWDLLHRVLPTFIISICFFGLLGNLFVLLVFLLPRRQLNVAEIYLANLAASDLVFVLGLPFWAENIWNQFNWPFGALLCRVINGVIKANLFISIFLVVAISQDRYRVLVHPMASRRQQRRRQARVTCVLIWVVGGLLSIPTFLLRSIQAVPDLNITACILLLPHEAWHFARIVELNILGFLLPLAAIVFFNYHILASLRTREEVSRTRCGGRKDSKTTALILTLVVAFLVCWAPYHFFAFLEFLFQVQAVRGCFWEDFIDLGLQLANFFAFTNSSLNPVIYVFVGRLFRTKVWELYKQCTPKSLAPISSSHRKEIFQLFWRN
The experiment in a line: FLIPR Ca2+ assay on hB1R-transfected CHO K1 cells, antagonistic action. The conditions noted are these: CHO-K1, 10 μM test substance; agonist Lys-Des-Arg9-bradykinin 0.5 nM; % of maximum achievable inhibition; read-out: hB1R [10 μM] % inhibition. Type of experiment: cell-based.

Experiment [2] addresses T2, B1R receptor of the rat (rB1R) (Rattus norvegicus, UniProt P97583).
T2 construct: host or cells: CHO K1 cells
T2 sequence (P97583 1-337): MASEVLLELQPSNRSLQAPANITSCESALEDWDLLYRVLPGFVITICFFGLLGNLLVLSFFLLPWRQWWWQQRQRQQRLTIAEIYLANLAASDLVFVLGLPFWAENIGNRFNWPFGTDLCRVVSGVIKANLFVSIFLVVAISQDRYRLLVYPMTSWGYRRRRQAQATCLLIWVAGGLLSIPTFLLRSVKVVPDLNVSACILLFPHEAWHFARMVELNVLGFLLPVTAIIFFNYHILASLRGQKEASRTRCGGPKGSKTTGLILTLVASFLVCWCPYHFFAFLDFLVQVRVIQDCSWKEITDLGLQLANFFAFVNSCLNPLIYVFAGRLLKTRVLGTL
Put plainly: FLIPR Ca2+ assay on rB1R-transfected CHO K1 cells, antagonistic action. The experiment is classed as cell-based. Conditions: CHO-K1, 10 μM test substance; agonist Des-Arg9-bradykinin 100 nM; % of maximum achievable inhibition; read-out: rB1R [10 μM] % inhibition.

Each structure is given as a SMILES string.

As for `COc1cc(C)c(S(=O)(=O)N2CCCC(OCC(=O)NC3CCC(Cc4ccccc4)(N4CCCC4)CC3)C2)c(C)c1` (centres unmarked) [Compound 181, N-(4-benzyl-4-(pyrrolidin-1-yl)cyclohexyl)-2-(1-(4-methoxy-2,6-dimethylphenylsulfonyl)piperidin-3-yloxy)acetamide], the inhibition at 10 µM in experiment [1] was determined as 78%; in experiment [2] it was 71%.
In the case of `COc1cc(C)c(S(=O)(=O)N2CCCC(COCC(=O)N(C)CC3CCC(CCc4ccccc4)(N4CCN(C)CC4)CC3)C2)c(C)c1` (centres unmarked) [Compound 182, 2-((1-(4-methoxy-2,6-dimethylphenylsulfonyl)piperidin-3-yl)methoxy)-N-methyl-N-((4-(4-methylpiperazin-1-yl)-4-phenethylcyclohexyl)methyl)acetamide], the inhibition at 10 µM in experiment [1] worked out at 106%; in experiment [2], 67%.
The corresponding values for `COc1cc(C)c(S(=O)(=O)N(C)CCOCC(=O)N(C)CC2CCC(Cc3ccccc3)(N3CCN(C)CC3)CC2)c(C)c1` (centres unmarked) [Compound 183, N-((4-benzyl-4-(4-methylpiperazin-1-yl)cyclohexyl)methyl)-2-(2-(4-methoxy-N,2,6-trimethylphenylsulfonamido)ethoxy)-N-methylacetamide] are 102% and 66%.
The like results for `COc1cc(C)c(S(=O)(=O)N2CCCC(OCC(=O)N(C)CC3CCC(Cc4ccccc4)(N4CCN(C)CC4)CC3)C2)c(C)c1` (centres unmarked) [Compound 184, N-((4-benzyl-4-(4-methylpiperazin-1-yl)cyclohexyl)methyl)-2-(1-(4-methoxy-2,6-dimethylphenylsulfonyl)piperidin-3-yloxy)-N-methylacetamide] were, in that order, 93% and 65%.
On to `COc1cc(C)c(S(=O)(=O)N(C)CCOCC(=O)NCC2CCC(c3ccccc3)(N3CCOCC3)CC2)c(C)c1` (centres unmarked) [Compound 185, 2-(2-(4-methoxy-N,2,6-trimethylphenylsulfonamido)ethoxy)-N-((4-morpholino-4-phenylcyclohexyl)methyl)acetamide], for which the inhibition at 10 µM in experiment [1] came out at 93%; in experiment [2] it was 65%.
Consider `CN1CCN(C2(Cc3ccccc3)CCC(CN(C)C(=O)COCCN(C)S(=O)(=O)c3c(Cl)cc(Cl)cc3Cl)CC2)CC1` (centres unmarked) [Compound 186, N-((4-benzyl-4-(4-methylpiperazin-1-yl)cyclohexyl)methyl)-N-methyl-2-(2-(2,4,6-trichloro-N-methylphenylsulfonamido)ethoxy)acetamide], for which the values for the inhibition at 10 µM in experiment [1] and in experiment [2] were 97% and 64%, respectively.
Turning to `COc1cc(C)c(S(=O)(=O)N2CCCC(COCC(=O)NC3CCC(c4ccccc4)(N4CCCC4)CC3)C2)c(C)c1` (centres unmarked) [Compound 187, 2-((1-(4-methoxy-2,6-dimethylphenylsulfonyl)piperidin-3-yl)methoxy)-N-(4-phenyl-4-(pyrrolidin-1-yl)cyclohexyl)acetamide], the inhibition at 10 µM in experiment [1] stood at 95%; in experiment [2], 63%.
Take `COc1cc(C)c(S(=O)(=O)N(C)CCOCC(=O)NCC2CCC(Cc3ccccc3)(N3CCOCC3)CC2)c(C)c1` (centres unmarked) [Compound 188, N-((4-benzyl-4-morpholinocyclohexyl)methyl)-2-(2-(4-methoxy-N,2,6-trimethylphenylsulfonamido)ethoxy)acetamide]: the figures for the inhibition at 10 µM in experiment [1] and in experiment [2] were 95% and 63%, respectively.
With `CN(CCOCC(=O)NC1CCC(Cc2ccccc2)(N2CCCC2)CC1)S(=O)(=O)c1c(Cl)cc(Cl)cc1Cl` (centres unmarked) [Compound 189, N-(4-benzyl-4-(pyrrolidin-1-yl)cyclohexyl)-2-(2-(2,4,6-trichloro-N-methylphenylsulfonamido)ethoxy)acetamide], the inhibition at 10 µM turned out to be 65% in experiment [1] and 60% in experiment [2].
For `COc1cc(C)c(S(=O)(=O)N2CCCC(OCC(=O)NC3CCC(Cc4ccccc4)(N4CCOCC4)CC3)C2)c(C)c1` (centres unmarked) [Compound 190, N-(4-benzyl-4-morpholinocyclohexyl)-2-(1-(4-methoxy-2,6-dimethylphenylsulfonyl)piperidin-3-yloxy)acetamide], the figures for the inhibition at 10 µM in experiment [1] and in experiment [2] were 90% and 57%, respectively.
Turning to `CN(CCOCC(=O)NC1CCC(c2ccccc2)(N2CCCC2)CC1)S(=O)(=O)c1c(Cl)cc(Cl)cc1Cl` (centres unmarked) [Compound 191, N-(4-phenyl-4-(pyrrolidin-1-yl)cyclohexyl)-2-(2-(2,4,6-trichloro-N-methylphenylsulfonamido)ethoxy)acetamide], the inhibition at 10 µM in experiment [1] is 90%; in experiment [2] it was 55%.
Consider `O=C(COCC1CCCN(S(=O)(=O)c2c(Cl)cc(Cl)cc2Cl)C1)NC1CCC(c2ccccc2)(N2CCCC2)CC1` (centres unmarked) [Compound 192, N-(4-phenyl-4-(pyrrolidin-1-yl)cyclohexyl)-2-((1-(2,4,6-trichlorophenylsulfonyl)piperidin-3-yl)methoxy)acetamide], for which the inhibition at 10 µM turned out to be 99% in experiment [1] and 50% in experiment [2].
The corresponding values for `CN(CCOCC(=O)NC1CCC(Cc2ccccc2)(N2CCCC2)CC1)S(=O)(=O)c1ccc(Cl)cc1Cl` (centres unmarked) [Compound 193, N-(4-benzyl-4-(pyrrolidin-1-yl)cyclohexyl)-2-(2-(2,4-dichloro-N-methylphenylsulfonamido)ethoxy)acetamide] are 93% and 34%.
Take `O=C(COC1CCCN(S(=O)(=O)c2c(Cl)cc(Cl)cc2Cl)C1)NC1CCC(c2ccccc2)(N2CCCC2)CC1` (centres unmarked) [Compound 194, N-(4-phenyl-4-(pyrrolidin-1-yl)cyclohexyl)-2-(1-(2,4,6-trichlorophenylsulfonyl)piperidin-3-yloxy)acetamide]: the inhibition at 10 µM in experiment [1] was found to be 96%; in experiment [2], 33%.
Consider `CN1CCN(C2(CCc3ccccc3)CCC(CN(C)C(=O)COCCN(C)S(=O)(=O)c3c(Cl)cc(Cl)cc3Cl)CC2)CC1` (centres unmarked) [Compound 195, N-methyl-N-((4-(4-methylpiperazin-1-yl)-4-phenethylcyclohexyl)methyl)-2-(2-(2,4,6-trichloro-N-methylphenylsulfonamido)ethoxy)acetamide], for which the inhibition at 10 µM turned out to be 100% in experiment [1] and 28% in experiment [2].
For `COc1cc(C)c(S(=O)(=O)N(C)CCOCC(=O)N2CCC(N)(c3ccccc3)CC2)c(C)c1` [Compound 196, N-(2-(2-(4-Amino-4-phenylpiperidin-1-yl)-2-oxoethoxy)ethyl)-4-methoxy-N,2,6-trimethylbenzenesulfonamide], the inhibition at 10 µM in experiment [1] amounted to 103%; in experiment [2], 100%.
With `COc1cc(C)c(S(=O)(=O)N(C)CCOCC(=O)N2CCC(Cc3ccccc3)(N3CCN(C)CC3)C2)c(C)c1` (centres unmarked) [Compound 197, N-(2-(2-(3-benzyl-3-(4-methylpiperazin-1-yl)pyrrolidin-1-yl)-2-oxoethoxy)ethyl)-4-methoxy-N,2,6-trimethylbenzenesulfonamide], the inhibition at 10 µM in experiment [1] was 98%; in experiment [2], 99%.
Regarding `CN(C)C1(c2ccccc2)CCC(NC(=O)COC2CCN(S(=O)(=O)c3c(Cl)cc(Cl)cc3Cl)C2)CC1` (centres unmarked) [Compound 198, N-(4-(dimethylamino)-4-phenylcyclohexyl)-2-(1-(2,4,6-trichlorophenylsulfonyl)pyrrolidin-3-yloxy)acetamide], the inhibition at 10 µM in experiment [1] was determined as 63%; in experiment [2], 47%.
Consider `CN(C)C1(c2ccccc2)CCC(NC(=O)COCCN(C)S(=O)(=O)c2c(Cl)cc(Cl)cc2Cl)CC1` (centres unmarked) [Compound 199, N-(4-(dimethylamino)-4-phenylcyclohexyl)-2-(2-(2,4,6-trichloro-N-methylphenylsulfonamido)ethoxy)acetamide], for which the inhibition at 10 µM in experiment [1] was determined as 76%; in experiment [2], 36%.
As to `COc1cc(C)c(S(=O)(=O)N2CCCC[C@H]2COCC(=O)N(C)CCC2CCC(c3ccccc3)(N3CCCC3)CC2)c(C)c1` (stereo partly drawn) [Compound 200, (S)-2-((1-(4-methoxy-2,6-dimethylphenylsulfonyl)piperidin-2-yl)methoxy)-N-methyl-N-(2-(4-phenyl-4-(pyrrolidin-1-yl)cyclohexyl)ethyl)acetamide], the inhibition at 10 µM in experiment [1] is 99%; in experiment [2], 105%.
Regarding `COc1cc(C)c(S(=O)(=O)N2CCCC[C@H]2COCC(=O)N(C)CCC2CCC(c3ccccc3)(N3CCC3)CC2)c(C)c1` (stereo partly drawn) [Compound 201, (S)-N-(2-(4-(azetidin-1-yl)-4-phenylcyclohexyl)ethyl)-2-((1-(4-methoxy-2,6-dimethylphenylsulfonyl)piperidin-2-yl)methoxy)-N-methylacetamide], the inhibition at 10 µM worked out at 100% in experiment [1] and 97% in experiment [2].
With `COc1cc(C)c(S(=O)(=O)N2CCCCC2COCC(=O)N2CCC(c3ccccc3)(N(C)C)CC2)c(C)c1` (centres unmarked) [Compound 202, 1-(4-(dimethylamino)-4-phenylpiperidin-1-yl)-2-((1-(4-methoxy-2,6-dimethylphenylsulfonyl)piperidin-2-yl)methoxy)ethanone], the inhibition at 10 µM in experiment [1] came to 100%; in experiment [2], 103%.

For orientation: inhibition means the change of the read-out against control, counted positive when it falls.

The values are drawn from patent publication US20090253669A1, “Substituted Sulfonamide Compounds” (GRUENENTHAL GmbH, priority 2008, published 2009).
